Where a name gives a salt, the structure may show the parent alone. Read-outs that look alike come from different tables or passages of the source.
Key:
[1] = system: SARS-CoV-2 (BetaCov/Belgium/GHB-03021/2020) in VeroE6-EGFP cells; experiment: microbe, parasite or virus in culture; type: cell-based; details: for IC50: Severe acute respiratory syndrome coronavirus 2
[2] = target: SARS-CoV-2 3CL-Pro (Severe acute respiratory syndrome coronavirus 2, UniProt P0DTD1); experiment: biochemical; details: read-out: 3CL-Pro Inhibition [%]
[3] = target: SARS-CoV-2 PLpro (Severe acute respiratory syndrome coronavirus 2, UniProt P0DTD1); experiment: PLpro enzymatic assay (ISG15-AMC substrate); type: biochemical; details: read-out: PL_Pro Inhibition [%]

| SMILES | % Confluence [1] | % Inhibition [1] | IC50 ([1]; read-out: IC50) | inhibition at 20 µM [2] | IC50 [1] | inhibition at 20 µM [3] | inhibition at 20 µM ([2]; primary screen at 20 µM, without DTT, read at 15 min, normalized to zinc pyrithione (100%) and DMSO (0%)) |
| --- | --- | --- | --- | --- | --- | --- | --- |
| c1ccc2c(c1)Sc1ccccc1N2C[C@H]1CN2CCC1CC2 (stereo in doubt) [Mequitazine, 10-(Quinuclidin-3-ylmethyl)-10H-phenothiazine] | 61.74% | 62.09% | 5.99 µM |  |  |  |  |
| Cc1cc(O)c2c(=O)c3c(O)cc(O)c4c5c(O)cc(O)c6c(=O)c7c(O)cc(C)c8c1c2c(c34)c(c78)c65 [Hypericin, 1,3,4,6,8,13-Hexahydroxy-10,11-dimethylphenanthro[1,10,9,8-opqra]perylene-7,14-dione] | 20.85% |  |  | 45.7% | 0.25 µM | 40.1% |  |
| CC(C)c1ccc2c(c1)C(N1CCN(CCO)CC1)Cc1ccc(F)cc1S2 (centres unmarked) [Isofloxythepin, 2-[4-(9-fluoro-3-propan-2-yl-5,6-dihydrobenzo[b][1]benzothiepin-5-yl)piperazin-1-yl]ethanol] | 67.67% | 35.39% | 106 µM |  |  |  |  |
| CC(C)(C)NCc1ccc(Nc2ccnc3cc(Cl)ccc23)cc1O [N-tert-Butylisoquine, 2-[(tert-butylamino)methyl]-5-[(7-chloroquinolin-4-yl)amino]phenol] | 77.86% | 44.99% |  |  |  |  |  |
| Nc1ccc2cc3ccc(N)cc3nc2c1 [Proflavine, 3,6-diaminoacridine] | 8.56% | 208.4% |  |  |  |  | 89.9% |
| O=C(c1ccc(OCCN2CCCCC2)cc1)c1c(-c2ccc(O)cc2)sc2cc(O)ccc12 [Raloxifen hydrochloride, 1-[6-Hydroxy-2-(4-hydroxyphenyl)benzo[b]thien-3-yl]-1-[4-[2-(1-piperidinyl)ethoxy]phenyl]methanone] | 45.26% | 70.75% | 9.78 µM |  |  |  |  |
| CC(C)(Sc1cc(C(C)(C)C)c(O)c(C(C)(C)C)c1)Sc1cc(C(C)(C)C)c(OC(=O)CCC(=O)O)c(C(C)(C)C)c1 [Succinobucol, Succinic acid 2,6-di-tert-butyl-4-[1-(3,5-di-tert-butyl-4-hydroxyphenylsulfanyl)-1-methylethylsulfanyl]phenyl monoester] | 18.73% | 37.53% |  |  |  |  |  |
